As a reminder, the pKi is the negative decadic logarithm of the Ki, by convention in mol/L.

The assay has as its target T1, P2X7 (UniProt Q99572).
T1 sequence (Q99572 1-595): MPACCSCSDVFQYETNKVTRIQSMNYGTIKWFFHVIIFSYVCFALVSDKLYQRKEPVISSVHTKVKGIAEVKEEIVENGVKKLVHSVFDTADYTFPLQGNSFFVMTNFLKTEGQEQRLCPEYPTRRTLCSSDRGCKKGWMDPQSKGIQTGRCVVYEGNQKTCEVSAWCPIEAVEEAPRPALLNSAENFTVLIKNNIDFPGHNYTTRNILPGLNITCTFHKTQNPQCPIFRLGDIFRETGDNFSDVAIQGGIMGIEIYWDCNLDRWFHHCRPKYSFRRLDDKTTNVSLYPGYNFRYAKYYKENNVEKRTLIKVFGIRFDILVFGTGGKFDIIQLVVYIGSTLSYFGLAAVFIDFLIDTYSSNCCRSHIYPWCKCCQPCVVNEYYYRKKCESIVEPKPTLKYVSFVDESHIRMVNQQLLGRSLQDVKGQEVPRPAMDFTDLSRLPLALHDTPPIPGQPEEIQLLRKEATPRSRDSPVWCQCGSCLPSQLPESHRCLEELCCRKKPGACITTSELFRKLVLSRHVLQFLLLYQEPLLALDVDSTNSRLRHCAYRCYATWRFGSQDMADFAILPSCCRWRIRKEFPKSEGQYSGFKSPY
The experiment in a line: P2X7 pKi of Table 1. It is filed as cell-based. As to the method: Intracellular Calcium Flux (FLIPR) Assay
Compound and Reagent Preparation
Stock solutions of compounds were prepared from powders as a 10 mM DMSO stock solution. These solutions were stored at RT during the two week period of these experiments to prevent freeze-thaw of the DMSO stocks. The DMSO stocks were added to the appropriate assay buffer at a concentration of 10 μM, and then diluted serially to the final concentrations that were tested. […] The aqueous solutions of compounds as well as ATP (Sigma A7699) and BzATP (Sigma B6396) were prepared fresh for each day of experiment.
1321N1 cells stably expressing the full length human P2X7 gene (1321N1-hP2X7) and HEK293 cells stably expressing the full length rat P2X7 gene (HEK293-rP2X7) were obtained from the Roche Cell Culture Facility. 1321N1-hP2X7 cells were grown in Dulbecco's Modified Eagle's Medium (DMEM) high glucose supplemented with 10% FBS and 250 μg/mL G418. HEK293-rP2X7 cells were grown in DMEM/F-12 supplemented with 10% FBS, 1 mM CaCl2, 2 mM MgCl2, 2 mM L-Glutamine and 500 μg/ml G418. Cells were split such that they never became >70% confluent.
Intracellular Calcium Flux (FLIPR)
On the day prior to the experiment, 1321N1-hP2X7 or HEK293-rP2X7 cells were released into suspension with calcium-free PBS+Versene and washed by centrifugation with calcium-free PBS to remove the Versene. Cells were resuspended in growth medium at a density of 2.5×10^5 cells/mL and seeded into black walled, clear bottom 96 well plates (50,000 cells/well) approximately 18 hr prior to intracellular calcium flux experiments.
On the day of the experiment, plates were washed with FLIPR buffer (calcium- and magnesium-free Hank's Balanced Salt Solution (HBSS) supplemented with 10 mM Hepes, 2.5 mM probenecid and 2 mM calcium chloride) using a BIO-TEK 96 channel plate washer and incubated with […] fluo-3 dye at 37° C. for one hr. The dye was then removed by plate washing and the cells were allowed to equilibrate for 20 min at room temperature with antagonist or vehicle (FLIPR buffer). Agonist (100 μM BzATP final concentration for hP2X7; 5 μM BzATP final concentration or rP2X7) was added online with the FLIPR and fluorescence measurements made at 1 sec intervals for 60 sec followed by 3 sec intervals for a further 4 min (5 min total). A final addition of 5 μM ionomycin was made and the maximal BzATP-evoked fluorescence normalized to the maximal ionomycin-evoked fluorescence.
The compound `O=C1CC(c2ccc(F)cc2)C(C(=O)Nc2cc3c(cc2Br)OCCO3)=CN1` (stereo not shown) [Compound 138, 4-(4-Fluoro-phenyl)-6-oxo-1,4,5,6-tetrahydro-pyridine-3-carboxylic acid(7-bromo-2,3-dihydro-benzo[1,4]dioxin-6-yl)-amide] yielded a pKi of 6.69. For `CCc1cc(Cl)c(OCCO)cc1NC(=O)C1=CNC(=O)C[C@H]1c1ccc(F)cc1` [Compound 123, (S)-4-(4-Fluoro-phenyl)-6-oxo-1,4,5,6-tetrahydro-pyridine-3-carboxylic acid[4-chloro-2-ethyl-5-(2-hydroxy-ethoxy)-phenyl]-amide] the value was 7.293; for `COc1cc(Br)c(NC(=O)C2=CNC(=O)C[C@@H]2c2cccc(F)c2)cc1OC` [Compound 34, (R)-4-(3-Fluoro-phenyl)-6-oxo-1,4,5,6-tetrahydro-pyridine-3-carboxylic acid(2-bromo-4,5-dimethoxy-phenyl)-amide], 6.9783. For `COc1cc(NC(=O)C2=CNC(=O)CC2c2ccc(F)cc2)c(Br)cc1Cl` (stereo not shown) [Compound 6, 4-(4-Fluoro-phenyl)-6-oxo-1,4,5,6-tetrahydro-pyridine-3-carboxylic acid(2-bromo-4-chloro-5-methoxy-phenyl)-amide] the value was 6.166; for `O=C1CC(c2cccc(F)c2)C(C(=O)Nc2cc3c(cc2Cl)OC(F)(F)O3)=CN1` (stereo not shown) [Compound 137, 4-(3-Fluoro-phenyl)-6-oxo-1,4,5,6-tetrahydro-pyridine-3-carboxylic acid(6-chloro-2,2-difluoro-benzo[1,3]dioxol-5-yl)-amide], 4.98. Turning to `COC(=O)c1cc(Br)c(NC(=O)C2=CNC(=O)CC2c2cccc(F)c2)cc1OC` (stereo not shown) [Compound 23, 5-Bromo-4-{[4-(3-fluoro-phenyl)-6-oxo-1,4,5,6-tetrahydro-pyridine-3-carbonyl]-amino}-2-methoxy-benzoic acid methyl ester], the negative logarithm of the Ki (pKi) is reported as 5.92. For `COc1cc(C)c(NC(=O)C2=CN(CCO)C(=O)C[C@H]2c2ccc(F)cc2)cc1OC` [Compound 146, (S)-4-(4-Fluoro-phenyl)-1-(2-hydroxy-ethyl)-6-oxo-1,4,5,6-tetrahydro-pyridine-3-carboxylic acid(4,5-dimethoxy-2-methyl-phenyl)-amide] the value was 7.71; for `COc1cc(NC(=O)C2=CNC(=O)CC2c2cccc(F)c2)c(Br)cc1F` (stereo not shown) [Compound 35, 4-(3-Fluoro-phenyl)-6-oxo-1,4,5,6-tetrahydro-pyridine-3-carboxylic acid(2-bromo-4-fluoro-5-methoxy-phenyl)-amide], 6.65. For `Cc1ccc(C(C)C)cc1NC(=O)C1=CNC(=O)CC1c1cccc(F)c1` (stereo not shown) [Compound 51, 4-(3-Fluoro-phenyl)-6-oxo-1,4,5,6-tetrahydro-pyridine-3-carboxylic acid(5-isopropyl-2-methyl-phenyl)-amide] the value was 7.445.

In turn, `Cc1cccc(NC(=O)C2=CNC(=O)CC2c2cccc(F)c2)c1C` (stereo not shown) [Compound 63, 4-(3-Fluoro-phenyl)-6-oxo-1,4,5,6-tetrahydro-pyridine-3-carboxylic acid(2,3-dimethyl-phenyl)-amide] came in with a pKi of 7.405. For the compound `Cc1cc2c(cc1NC(=O)C1=CNC(=O)C[C@H]1c1ccc(F)cc1)OCCO2` [Compound 140, (S)-4-(4-Fluoro-phenyl)-6-oxo-1,4,5,6-tetrahydro-pyridine-3-carboxylic acid(7-methyl-2,3-dihydro-benzo[1,4]dioxin-6-yl)-amide], the pKi is 6.94.

On to `COc1ccc(NC(=O)C2=CNC(=O)C[C@H]2c2ccc(F)cc2)c(C)c1` [Compound 111, (S)-4-(4-Fluoro-phenyl)-6-oxo-1,4,5,6-tetrahydro-pyridine-3-carboxylic acid(4-methoxy-2-methyl-phenyl)-amide], for which the negative-log Ki (pKi) worked out at 6.5.

Compound `O=C1CC(c2ccccc2)C(C(=O)NC2CCc3ccccc32)=CN1` (stereo not shown) [Compound 136, 6-Oxo-4-phenyl-1,4,5,6-tetrahydro-pyridine-3-carboxylic acid indan-1-ylamide] had a pKi of 5.412. For `COc1cc(NC(=O)C2=CNC(=O)C[C@H]2c2ccc(F)cc2)ccc1F` [Compound 108, (S)-4-(4-Fluoro-phenyl)-6-oxo-1,4,5,6-tetrahydro-pyridine-3-carboxylic acid(4-fluoro-3-methoxy-phenyl)-amide] the value was 6.11. For `COC(=O)c1ccc(C)c(NC(=O)C2=CNC(=O)CC2c2cccc(F)c2)c1` (stereo not shown) [Compound 16, 3-{[4-(3-Fluoro-phenyl)-6-oxo-1,4,5,6-tetrahydro-pyridine-3-carbonyl]-amino}-4-methyl-benzoic acid methyl ester] the value was 6.43. Then `Cc1ccc(C)c(NC(=O)C2=CNC(=O)CC2c2ccc(F)cc2)c1` (stereo not shown) [Compound 36, 4-(4-Fluoro-phenyl)-6-oxo-1,4,5,6-tetrahydro-pyridine-3-carboxylic acid(2,5-dimethyl-phenyl)-amide], with 6.93; and `Cc1cc(C)c(OCCO)cc1NC(=O)C1=CNC(=O)C[C@H]1c1ccc(F)cc1` [Compound 114, (S)-4-(4-Fluoro-phenyl)-6-oxo-1,4,5,6-tetrahydro-pyridine-3-carboxylic acid [5-(2-hydroxy-ethoxy)-2,4-dimethyl-phenyl]-amide], with 7.815; and `COc1ccc(Br)c(NC(=O)C2=CNC(=O)CC2c2ccc(F)cc2)c1` (stereo not shown) [Compound 18, 4-(4-Fluoro-phenyl)-6-oxo-1,4,5,6-tetrahydro-pyridine-3-carboxylic acid(2-bromo-5-methoxy-phenyl)-amide], with 6.08.

Turning to `Cc1cc(Cl)c(OCC(C)O)cc1NC(=O)C1=CNC(=O)C[C@H]1c1cccc(F)c1` (stereo partly drawn) [Compound 117, (S)-4-(3-Fluoro-phenyl)-6-oxo-1,4,5,6-tetrahydro-pyridine-3-carboxylic acid[4-chloro-5-(2-hydroxy-propoxy)-2-methyl-phenyl]-amide], the negative logarithm of the Ki (pKi) is 7.06.

`Cc1c(CO)cccc1NC(=O)C1=CNC(=O)C[C@@H]1c1ccc(F)cc1` [Compound 107, (R)-4-(4-Fluoro-phenyl)-6-oxo-1,4,5,6-tetrahydro-pyridine-3-carboxylic acid(3-hydroxymethyl-2-methyl-phenyl)-amide] returned a pKi of 5.36. Then `Cc1c(CCO)cccc1NC(=O)C1=CNC(=O)C[C@H]1c1ccc(F)cc1` [Compound 100, (S)-4-(4-Fluoro-phenyl)-6-oxo-1,4,5,6-tetrahydro-pyridine-3-carboxylic acid[3-(2-hydroxy-ethyl)-2-methyl-phenyl]-amide], with 6.803; and `COc1ccc(C)c(NC(=O)C2=CNC(=O)C[C@H]2c2cccc(F)c2)c1` [Compound 46, (S)-4-(3-Fluoro-phenyl)-6-oxo-1,4,5,6-tetrahydro-pyridine-3-carboxylic acid(5-methoxy-2-methyl-phenyl)-amide], with 7.695.

Take `Cc1ccccc1CNC(=O)C1=CNC(=O)C[C@H]1c1cccc(F)c1` [Compound 83, (S)-4-(3-Fluoro-phenyl)-6-oxo-1,4,5,6-tetrahydro-pyridine-3-carboxylic acid 2-methyl-benzylamide]: the negative-log Ki (pKi) was determined as 6.17.

`Cc1ccc(C(C)C)cc1NC(=O)C1=CNC(=O)C[C@H]1c1cccc(F)c1` [Compound 69, (S)-4-(3-Fluoro-phenyl)-6-oxo-1,4,5,6-tetrahydro-pyridine-3-carboxylic acid(5-isopropyl-2-methyl-phenyl)-amide]: the negative-log Ki (pKi) came out at 7.01.

The compound `Cc1cccc(NC(=O)C2=CNC(=O)C[C@H]2c2ccc(F)cc2)c1Cl` [Compound 103, (S)-4-(4-Fluoro-phenyl)-6-oxo-1,4,5,6-tetrahydro-pyridine-3-carboxylic acid(2-chloro-3-methyl-phenyl)-amide] showed a pKi of 7.44.

The values are drawn from US8288552B2, “Dihydropyridone amidesas P2X7 modulators” (Roche Palo Alto LLC, priority 2008, dated 2012).
